Source: US11124494B2, “Aryl heterocyclic piperidinone formyl peptide 2 receptor and formyl peptide 1 receptor agonists” (Bristol-Myers Squibb Company, priority 2017, dated 2021)

How the values were obtained:
human FPR2 receptors = human FPR2 receptors (Homo sapiens (Human), UniProt P25090); experiment: FPR2 cyclic adenosine monophosphate (cAMP) assay; assay type: cell-based; details: CHO cells overexpressing human FPR2; forskolin 5 μM, IBMX 200 μM; inhibition of cAMP production; read-out: hFPR2 cAMP2 EC50
human FPR2 receptors, sequence (P25090 whole entry): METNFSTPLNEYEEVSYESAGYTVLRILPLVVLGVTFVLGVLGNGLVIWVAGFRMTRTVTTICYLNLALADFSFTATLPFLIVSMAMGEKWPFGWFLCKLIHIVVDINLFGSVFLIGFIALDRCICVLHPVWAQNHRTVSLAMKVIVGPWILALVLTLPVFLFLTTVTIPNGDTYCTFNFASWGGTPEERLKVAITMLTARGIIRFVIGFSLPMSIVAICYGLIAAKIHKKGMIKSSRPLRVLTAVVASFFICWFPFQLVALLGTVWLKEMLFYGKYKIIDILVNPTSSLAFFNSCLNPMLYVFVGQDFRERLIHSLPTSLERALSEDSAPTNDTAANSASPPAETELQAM
Protocol: (§1) FPR2 and FPR1 Cyclic Adenosine Monophosphate (cAMP) Assays. A mixture of forskolin (5 μM final for FPR2 or 10 μM final for FPR1) and IBMX (200 μM final) were added to 384-well Proxiplates (Perkin-Elmer) pre-dotted with test compounds in DMSO (1% final) at final concentrations in the range of 1.7 nM to 100 μM. Chinese Hamster Ovary cells (CHO) overexpressing human FPR1 or human FPR2 receptors were cultured in F-12 (Ham's) medium supplemented with 10% qualified FBS, 250 μg/ml zeocin and 300 μg/ml hygromycin (Life Technologies). Reactions were initiated by adding 2,000 human FPR2 cells per well or 4,000 human FPR1 cells per well in Dulbecco's PBS (with calcium and magnesium) (Life Technologies) supplemented with 0.1% BSA (Perkin-Elmer). The reaction mixtures were incubated for 30 min at room temperature. The level of intracellular cAMP was determined using the HTRF HiRange cAMP assay reagent kit (Cisbio) according to manufacturer's instruction. Solutions of cryptate conjugated anti-cAMP and d2 flurorophore-labelled cAMP were made in a supplied lysis buffer separately. Upon completion of the reaction, the cells were lysed with equal volume of the d2-cAMP solution and anti-cAMP solution. After a 1-h room temperature incubation, time-resolved fluorescence intensity was measured using the Envision (Perkin-Elmer) at 400 nm excitation and dual emission at 590 nm and 665 nm. A calibration curve was constructed with an external cAMP standard at concentrations ranging from 1 μM to 0.1 pM by plotting the fluorescent intensity ratio from 665 nm emission to the intensity from the 590 nm emission against cAMP concentrations. The potency and activity of a compound to inhibit cAMP production was then determined by fitting to a 4-parametric logistic equation from a plot of cAMP level versus compound concentrations.

human FPR1 receptors = human FPR1 receptors (Homo sapiens (Human), UniProt P21462); experiment: FPR1 cyclic adenosine monophosphate (cAMP) assay; assay type: cell-based; details: CHO cells overexpressing human FPR1; forskolin 10 μM, IBMX 200 μM; inhibition of cAMP production; read-out: hFPR1 cAMP EC50
human FPR1 receptors, sequence (P21462 whole entry): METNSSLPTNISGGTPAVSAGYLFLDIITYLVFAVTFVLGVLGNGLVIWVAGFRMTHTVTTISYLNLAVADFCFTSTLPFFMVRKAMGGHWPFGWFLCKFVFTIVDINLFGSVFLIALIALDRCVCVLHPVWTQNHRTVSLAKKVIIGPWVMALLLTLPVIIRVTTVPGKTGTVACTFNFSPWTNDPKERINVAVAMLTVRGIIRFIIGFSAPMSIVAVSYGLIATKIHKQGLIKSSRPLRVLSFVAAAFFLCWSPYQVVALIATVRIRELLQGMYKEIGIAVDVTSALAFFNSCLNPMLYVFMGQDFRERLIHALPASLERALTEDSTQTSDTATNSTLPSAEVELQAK
Protocol: as §1

EC50 (human FPR2 receptors) | EC50 (human FPR1 receptors) | Compound
0.017 µM | 0.56 µM | O=C(Nc1ccc(C(F)(F)F)nc1)N[C@@H]1CCCN(c2ccc(C3(CN4CCOCC4)CCC3)cc2)C1=O [Example 52, (R)-1-(1-(4-(1-(Morpholinomethyl)cyclobutyl)phenyl)-2-oxopiperidin-3-yl)-3-(6-(trifluoromethyl)pyridin-3-yl)urea]
0.017 µM | 0.7 µM | O=C(Nc1ccc(Cl)cn1)N[C@@H]1CCCN(c2ccc(C3(CN4CCOCC4)CC3)cc2)C1=O [Example 53, (R)-1-(5-chloropyridin-2-yl)-3-(1-(4-(1-(morpholinomethyl)cyclopropyl)phenyl)-2-oxopiperidin-3-yl)urea]
0.96 µM | > 5000 µM | O=C(Nc1ccc(C(F)(F)F)nc1)N[C@H]1CCCN(c2ccc(C3(CN4CCCC4)CCC3)cc2)C1=O [Example 57, (S)-1-(2-oxo-1-(4-(1-(pyrrolidin-1-ylmethyl)cyclobutyl)phenyl)piperidin-3-yl)-3-(6-(trifluoromethyl)pyridin-3-yl)urea]
1 µM | 3.4 µM | O=C(Nc1ccc(C(F)(F)F)nc1)N[C@H]1CCCN(c2ccc(C3(CN4CCCC4)CCCC3)cc2)C1=O [Example 58, (S)-1-(2-oxo-1-(4-(1-(pyrrolidin-1-ylmethyl)cyclopentyl)phenyl)piperidin-3-yl)-3-(6-(trifluoromethyl)pyridin-3-yl)urea]
1.2 µM | 1.1 µM | O=C(Nc1ccc(C(F)(F)F)nc1)N[C@H]1CCCN(c2ccc(C3(CN4CCOCC4)CCC3)cc2)C1=O [Example 62, (S)-1-(1-(4-(1-(morpholinomethyl)cyclobutyl)phenyl)-2-oxopipendin-3-yl)-3-(6-(trifluoromethyl)pyridin-3-yl)urea]
0.019 µM | 0.66 µM | CS(=O)(=O)NCC1(c2ccc(N3C[C@@H](O)C[C@H](NC(=O)Nc4ncc(C(F)(F)F)cc4F)C3=O)cc2)CC1 [Example 69, N-((1-(4-((3S,5S)-3-(3-(3-fluoro-5-(trifluoromethyl)pyridin-2-yl)ureido)-5-hydroxy-2-oxopiperidin-1-yl)phenyl)cyclopropyl)methyl)methanesulfonamide]
0.017 µM | 2.1 µM | CS(=O)(=O)NCC1(c2ccc(N3C[C@@H](O)C[C@@H](NC(=O)Nc4ncc(Cl)cc4F)C3=O)cc2)CC1 [Example 71]
83 µM | 330 µM | CC(=O)NC(C)C1(c2ccc(N3CCC[C@@H](NC(=O)Nc4ccc(C(F)(F)F)nc4)C3=O)cc2)CC1 (stereo partly drawn) [Example 73]
3.2 µM | 3.6 µM | O=C(Nc1ccc(Cl)cc1F)N[C@@H]1CCCN(c2ccc(C3CCC(O)C3)cc2)C1=O (stereo partly drawn) [Example 77, 1-(4-Chloro-2-fluorophenyl)-3-((3R)-1-(4-(3-hydroxycyclopentyl)phenyl)-2-oxopiperidin-3-yl)urea]
